Assay results published in US8765730B2 (Hoffmann-La Roche Inc, priority 2010, dated 2014).
pEC50: −log10 of the molar value.

Each molecule was assayed against T1, human GPBAR1 receptor (Homo sapiens, UniProt Q8TDU6) (assay: functional cAMP assay in CHO-dhfr(minus) cells expressing human GPBAR1 receptors). Settings: functional cAMP assay, 30 min at 30° C., read-out: human EC50.
T1 construct: expressed in transfected cells
T1 sequence (Q8TDU6 1-330): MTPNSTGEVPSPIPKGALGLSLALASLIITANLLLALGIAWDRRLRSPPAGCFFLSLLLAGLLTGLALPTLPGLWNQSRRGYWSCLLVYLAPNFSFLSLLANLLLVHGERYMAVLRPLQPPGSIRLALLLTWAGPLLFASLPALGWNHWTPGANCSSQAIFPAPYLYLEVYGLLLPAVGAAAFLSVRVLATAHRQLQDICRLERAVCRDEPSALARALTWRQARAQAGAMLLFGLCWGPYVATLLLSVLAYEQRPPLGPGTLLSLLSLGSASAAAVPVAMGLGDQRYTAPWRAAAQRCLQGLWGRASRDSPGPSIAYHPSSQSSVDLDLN
Format: cell-based
In short: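 Agonist cAMP read-out: stable GPBAR1 CHO-dhfr− clone, 30 min compound exposure at 30° C following 30 min IBMX (1 mM) preincubation in Krebs Ringer bicarbonate. Time-resolved energy-transfer detection gives EC50; parental CHO cells serve as counter-screen.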

pEC50	Structure (SMILES)
8.00	Cc1ccccc1[C@H](C/C(=N\O)c1cc(Br)c(=O)n(C)c1)c1ccc(Br)cc1 [Example 252, 3-Bromo-5-{(R)-3-(4-bromo-phenyl)-1-[(E)-hydroxyimino]-3-o-tolyl-propyl}-1-methyl-1H-pyridin-2-one]

Same assay, conditions: human EC50, functional cAMP assay, 30 min at 30° C.

Structure (SMILES)	pEC50
Cc1cc(/C(CC(c2ccc(C(=O)NC3CCS(=O)(=O)CC3)cc2)c2ccc(F)cc2F)=N/O)ccn1 (stereo not drawn) [Example 440, 4-[1-(2,4-Difluoro-phenyl)-3-[(E)-hydroxyimino]-3-(2-methyl-pyridin-4-yl)-propyl]-N-(1,1-dioxo-hexahydro-1λ^6-thiopyran-4-yl)-benzamide]	6.83
Cc1cc(/C(C[C@H](c2ccc(N3CCC(C(N)=O)CC3)cc2)c2ccccc2C)=N/O)ccn1 [Example 367, (R,E)-1-(4-(3-(Hydroxyimino)-3-(2-methylpyridin-4-yl)-1-o-tolylpropyl)phenyl)piperidine-4-carboxamide]	9.00
Cc1cnc(F)cc1C(CC(c1ccc(Br)cc1)c1ccccc1C)=NO (racemic) [Example 124, 3-(4-Bromo-phenyl)-1-(2-fluoro-5-methyl-pyridin-4-yl)-3-o-tolyl-propan-1-one oxime]	7.77
Cc1ccccc1C(CC(=NO)c1ccc2ncccc2c1)c1ccc(Br)cc1 (racemic) [Example 125, 3-(4-Bromo-phenyl)-1-quinolin-6-yl-3-o-tolyl-propan-1-one oxime]	5.66
Cc1cc(/C(CC(c2ccc(/C=C/C(=O)O)cc2)c2ccccc2C)=N\O)ccn1 (racemic) [Example 87, 3-{4-[3-[Hydroxyimino]-3-(2-methyl-pyridin-4-yl)-1-o-tolyl-propyl]-phenyl}-acrylic acid]	6.62
Cc1cc(Cl)ccc1C(C/C(=N\O)c1ccc(=O)n(C)c1)c1ccc(S(C)(=O)=O)cc1 (single isomer, unassigned; (+)) [Example 334, (+)-(E)-5-(3-(4-chloro-2-methylphenyl)-1-(hydroxyimino)-3-(4-(methylsulfonyl)phenyl)-propyl)-1-methylpyridin-2(1H)-one]	7.17
Cc1cc(Cl)ccc1[C@H](C/C(=N\O)c1ccnc(CO)c1)c1ccc(Br)cc1 [Example 383, (R,E)-3-(4-Bromophenyl)-3-(4-chloro-2-methylphenyl)-1-(2-(hydroxymethyl)pyridin-4-yl)propan-1-one oxime]	6.49
Cc1cc(/C(C[C@H](c2ccc(C3=CC(=O)NCC3)cc2)c2ccccc2C)=N/O)ccn1 [Example 377, (R,E)-4-(4-(3-(Hydroxyimino)-3-(2-methylpyridin-4-yl)-1-o-tolylpropyl)phenyl)-5,6-dihydropyridin-2(1H)-one]	7.92
Cn1cc(/C(CC(c2ccc(C(=O)N[C@H]3CC[C@H](C(=O)O)CC3)c(F)c2)c2ccccc2Cl)=N/O)ccc1=O (stereo partly drawn) [Example 231, Trans-4-{4-[1-(2-Chloro-phenyl)-3-[(E)-hydroxyimino]-3-(1-methyl-6-oxo-1,6-dihydro-pyridin-3-yl)-propyl]-2-fluoro-benzoylamino}-cyclohexanecarboxylic acid]	6.55
Cc1cc(/C(C[C@@H](c2ccc(N3CCC(C(=O)O)CC3)cc2)c2ccc(F)cc2F)=N/O)ccn1 (single isomer, unassigned) [Example 428, 1-{4-[(+)-1-(2,4-Difluoro-phenyl)-3-[(E)-hydroxyimino]-3-(2-methyl-pyridin-4-yl)-propyl]-phenyl}-piperidine-4-carboxylic acid]	7.74
CCS(=O)(=O)c1ccc(-c2ccc(C(C/C(=N\O)c3ccncc3)c3ccccc3)cc2)cc1 (stereo not drawn) [Example 26, (E)-3-(4′-Ethanesulfonyl-biphenyl-4-yl)-3-phenyl-1-pyridin-4-yl-propan-1-one oxime]	6.97
Cc1cc(C(C=C(c2ccccc2)c2ccccc2)=NO)cc(C)n1 (mixture of isomers) [Example 66, 1-(2,6-Dimethyl-pyridin-4-yl)-3,3-diphenyl-propenone oxime]	6.52
Cc1cc(/C(C[C@H](c2ccc(N3CCC(O)CC3)cc2)c2ccccc2C)=N/O)ccn1 [Example 145, (E,R)-3-(4-(4-Hydroxypiperidin-1-yl)phenyl)-1-(2-methylpyridin-4-yl)-3-o-tolylpropan-1-one oxime]	9.00
CCOC(=O)c1ccc(-c2ccc([C@H](C/C(=N\O)c3ccc(=O)n(C)c3)c3ccc(Cl)cc3F)cc2)s1 (single isomer, unassigned) [Example 469, 5-{4-[(+)-1-(4-Chloro-2-fluoro-phenyl)-3-[(E)-hydroxyimino]-3-(1-methyl-6-oxo-1,6-dihydro-pyridin-3-yl)-propyl]-phenyl}-thiophene-2-carboxylic acid ethyl ester]	6.38
Cc1cc(F)ccc1[C@@H](C/C(=N\O)c1ccc(=O)n(C)c1)c1ccc(Br)cc1 (single isomer, unassigned) [Example 405, (+)-5-{3-(4-Bromo-phenyl)-3-(4-fluoro-2-methyl-phenyl)-1-[(E)-hydroxyimino]-propyl}-1-methyl-1H-pyridin-2-one]	8.10

Second part, the molecule after the results:

pEC50	Structure (SMILES)
5.34	ON=C(CC1c2ccccc2-c2ccccc21)c1ccncc1 (racemic) [Example 61, 2-(9H-Fluoren-9-yl)-1-pyridin-4-yl-ethanone oxime]
6.09	Cc1ccccc1C(C/C(=N\O)c1ccc(=O)n(C)c1)c1ccc(C(=O)NC(C)(C)CO)cc1 (stereo not drawn) [Example 303, (E)-N-(1-Hydroxy-2-methylpropan-2-yl)-4-(3-(hydroxyimino)-3-(1-methyl-6-oxo-1,6-dihydropyridin-3-yl)-1-o-tolylpropyl)benzamide]
6.34	Cn1cc(/C(CC(c2ccc(S(C)(=O)=O)cc2)c2cc(F)cc(F)c2)=N/O)ccc1=O (stereo not drawn) [Example 351, (E)-5-(3-(3,5-Difluorophenyl)-1-(hydroxyimino)-3-(4-(methylsulfonyl)phenyl)propyl)-1-methylpyridin-2(1H)-one]
8.40	CCn1cc(/C(CC(c2ccc(Br)cc2)c2ccccc2C)=N/O)ccc1=O (stereo not drawn) [Example 164, 5-{3-(4-Bromo-phenyl)-1-[(E)-hydroxyimino]-3-o-tolyl-propyl}-1-ethyl-1H-pyridin-2-one]
7.14	Cc1cc(Cl)ccc1C(C/C(=N\O)c1ccc(=O)n(C)c1)c1ccc(S(C)(=O)=O)cc1 (single isomer, unassigned; (-)) [Example 333, (−)-(E)-5-(3-(4-Chloro-2-methylphenyl)-1-(hydroxyimino)-3-(4-(methylsulfonyl)phenyl)-propyl)-1-methylpyridin-2(1H)-one]
6.82	Cc1cc(/C(C[C@H](c2ccc(C3CN(C(=O)OC(C)(C)C)C3)cc2)c2ccccc2C)=N/O)ccn1 [Example 481, (R,E)-tert-Butyl 3-(4-(3-(hydroxyimino)-3-(2-methylpyridin-4-yl)-1-o-tolylpropyl)phenyl)-azetidine-1-carboxylate]
6.29	COC(=O)c1ccc(-c2cccc(C(CC(=NO)c3ccnc(C)c3)c3ccccc3C)c2)cc1F (racemic) [Example 100, 3-Fluoro-3′-[3-[hydroxyimino]-3-(2-methyl-pyridin-4-yl)-1-o-tolyl-propyl]-biphenyl-4-carboxylic acid methyl ester]
8.00	Cc1cc(F)ccc1C(C/C(=N\O)c1ccc(=O)n(C)c1)c1ccc(-c2ccc(C(=O)NCC(=O)O)cc2)cc1 (stereo not drawn) [Example 258, ({4′-[1-(4-Fluoro-2-methyl-phenyl)-3-[(E)-hydroxyimino]-3-(1-methyl-6-oxo-1,6-dihydro-pyridin-3-yl)-propyl]-biphenyl-4-carbonyl}-amino)-acetic acid]
